These results are taken from patent US10799555B2, “PD-1 peptide inhibitors” (Leidos, Inc., priority 2016, dated 2020).

For experiment [1], the target named is soluble recombinant human PD-1 receptor (Homo sapiens, UniProt Q15116). The experiment in a line: Clonal phage ELISA of phage display library clones. It is filed as binding. Conditions: for Clonal Phase ELISA coated signal: after fifth round of panning; for Clonal Phase ELISA uncoated signal: uncoated (background). An excerpt:
The TriCo-20™ (TRICO-20™) and TriCo-16™ (TRICO-16™) Phage Display Peptide Libraries (Creative Biolabs, 45-1 Ramsey Road, Shirley, N.Y. 11967) were screened to identify binders of soluble recombinant human PD-1 receptor. After the fourth round of panning, obvious enrichment for specific binders was observed, and individual peptides were confirmed as weakly specific binders in a clonal phage ELISA. A fifth round of panning led to greater enrichment.
In general terms: In an ELISA, binding on a coated surface is turned into a signal by an enzyme label.

Another experiment deals with human PBMCs. The experiment is classed as cell-based. The arrangement: key: “x” indicates no effect; “−” indicates a possible low effect; “+” indicates some effect; “++” indicates a definite effect.
For another experiment, the target named is T1, mouse PD-1 (Mus musculus, UniProt Q02242).
T1 sequence (Q02242 25-288): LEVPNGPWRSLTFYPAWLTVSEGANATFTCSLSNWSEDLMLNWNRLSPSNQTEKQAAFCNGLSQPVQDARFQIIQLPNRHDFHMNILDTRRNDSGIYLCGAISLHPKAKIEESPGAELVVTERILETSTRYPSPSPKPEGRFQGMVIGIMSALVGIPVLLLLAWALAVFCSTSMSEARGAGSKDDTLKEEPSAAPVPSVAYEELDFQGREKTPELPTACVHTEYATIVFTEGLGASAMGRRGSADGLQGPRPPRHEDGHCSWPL
The experiment is described as follows: BIACORE assay, mouse PD-1. The conditions noted are these: for Rmax / KA / Kd: ligand mouse PD-1 10,000 RU, 25° C.; for KA / Kd: steady state equilibrium; for binding / affinity towards mouse PD-1 (in words): BIACORE. It is filed as binding. Here is the method:
(§1) BIACORE® assays were carried out using a BIACORE® T-200 at 25° C. The assay and regeneration buffers contained 10 mM HEPES (pH 7.4), 150 mM NaCl, 3 mM EDTA, and 0.05% P20. The immobilization buffer was 10 mM sodium acetate, pH 5.0. The flow rate used for immobilizing the ligand was 5 μl/min. The flow rate for kinetics analysis was 30 μl/min.
12,000 response units (RU) of human and 6000 RU of mouse PD-1 receptors were directly immobilized on flow cell 2 and flow cell 4 of the CMS chip by amine coupling method (EDC/NHS). The un-occupied sites were blocked with 1M ethanol amine. Scouting was performed at a single analyte concentration of 25 μM to confirm yes/no binding. Flow cell 1 was kept blank and used for reference subtraction. Binding of analyte to the ligand was monitored in real time.
Based on the scouting results, full kinetics were performed by immobilizing higher RU of the ligand to a new chip and analyte concentration at 25 μM, followed by serial dilution to 12.5, 6.25, 3.125, 1.562, 0.78 and 0 μM concentration or as indicated. Due to fast on rate and off rate, KD was determined by steady state equilibrium kinetics.
(§2) Chi square (χ2) analysis was carried out between the actual sensorgram and a sensorgram generated from the BIANALYSIS® software (black line) to determine the accuracy of the analysis. A χ2 value within 1-2 is considered significant (accurate) and below 1 is highly significant (highly accurate).

The next experiment addresses human PD-1 (Homo sapiens, UniProt Q15116). The experiment is described as follows: BIACORE assay, human PD-1. The experiment is classed as binding. Conditions: for Rmax / KA / Kd: ligand human PD-1 10,000 RU, 25° C.; for KA / Kd: steady state equilibrium; for binding / affinity towards human PD-1 (in words): BIACORE. The procedure:
as §1
[…] The un-occupied sites were blocked with 1M ethanol amine. Scouting was performed at a single analyte concentration of 25 μM to confirm yes/no binding. Flow cell 1 was kept blank and used for reference subtraction. Binding of analyte to the ligand was monitored in real time.
[…] Due to fast on rate and off rate, KD was determined by steady state equilibrium kinetics.
as §2
(Surface plasmon resonance follows binding to a sensor surface in real time, without labels.)

Residues, ends and D or L forms follow the SMILES beside them.

Chain of human PD-1 (Q15116 25-288): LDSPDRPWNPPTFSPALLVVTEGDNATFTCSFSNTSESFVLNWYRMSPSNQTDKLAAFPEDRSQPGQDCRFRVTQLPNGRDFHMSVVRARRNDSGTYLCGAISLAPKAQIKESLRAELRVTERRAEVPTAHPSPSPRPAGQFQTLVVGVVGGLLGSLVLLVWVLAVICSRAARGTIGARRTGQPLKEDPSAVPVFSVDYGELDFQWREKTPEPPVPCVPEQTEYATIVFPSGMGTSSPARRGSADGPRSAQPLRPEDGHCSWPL
Chain of soluble recombinant human PD-1 receptor (Q15116 25-170 limits assumed): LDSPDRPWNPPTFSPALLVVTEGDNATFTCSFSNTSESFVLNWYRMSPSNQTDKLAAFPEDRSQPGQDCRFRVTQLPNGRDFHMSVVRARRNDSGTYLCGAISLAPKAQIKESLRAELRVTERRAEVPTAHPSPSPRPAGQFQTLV

`CC[C@H](C)[C@H](NC(=O)[C@H](Cc1c[nH]c2ccccc12)NC(=O)[C@H](CCC(=O)O)NC(=O)[C@H](Cc1c[nH]cn1)NC(=O)[C@H](CCC(=O)O)NC(=O)[C@H](Cc1c[nH]cn1)NC(=O)[C@@H]1CCCN1C(=O)[C@H](CCCNC(=N)N)NC(=O)[C@@H](NC(=O)[C@H](Cc1c[nH]cn1)NC(=O)[C@H](Cc1c[nH]cn1)NC(=O)[C@H](CC(N)=O)NC(=O)[C@H](Cc1c[nH]cn1)NC(=O)[C@H](Cc1ccccc1)NC(=O)[C@H](CO)NC(=O)[C@H](C)NC(=O)[C@@H]1CCCN1C(=O)[C@H](CC(C)C)NC(=O)[C@H](CC(N)=O)NC(=O)[C@@H](N)Cc1c[nH]c2ccccc12)[C@@H](C)CC)C(=O)N[C@@H](CCC(N)=O)C(=O)O` [WQ20] (H-WNLPASFHNHHIRPHEHEWIQ-OH; N-terminus and C-terminus assumed): in experiment [1], the “Clonal Phase ELISA coated signal” value amounted to 0.275 and the “Clonal Phase ELISA uncoated signal” value amounted to 0.115. Also, in the experiment with human PBMCs, the IFNγ production result is recorded as “++”, the IL-2 production result is on record as “−”, the IL-4 production result is on record as “++” and the IL-6 production entry is “++”. Further, in the experiment on human PBMCs, the IL-10 production result is on record as “x” and the TNFα production entry is “++”. Moreover, at mouse PD-1, the Rmax turned out to be 270 RU, the KA was determined as 1310 M⁻¹ and the Kd stood at 761 µM. On human PD-1, this molecule gave an Rmax of 84.7 RU, a KA of 3280 M⁻¹ and a Kd of 305 µM.
In the experiment with mouse PD-1, “Mouse PD-L1: mouse PD-L1 used as analyte on immobilized mouse PD-1 in BIACORE [reference compound]” showed an Rmax of 259 RU and a KA of 2.75e+06 M⁻¹.
As to `CSCC[C@H](NC(=O)CNC(=O)[C@@H](NC(=O)[C@H](Cc1c[nH]c2ccccc12)NC(=O)[C@H](Cc1c[nH]cn1)NC(=O)[C@H](CO)NC(=O)[C@H](CCCNC(=N)N)NC(=O)[C@@H](NC(=O)[C@H](CCC(N)=O)NC(=O)[C@H](Cc1ccc(O)cc1)NC(=O)[C@@H](NC(=O)[C@H](CCC(N)=O)NC(=O)[C@H](Cc1c[nH]cn1)NC(=O)[C@H](Cc1c[nH]cn1)NC(=O)[C@@H](N)Cc1c[nH]cn1)C(C)C)C(C)C)[C@@H](C)O)C(=O)N[C@@H](Cc1c[nH]cn1)C(=O)N[C@@H](CO)C(=O)NCC(=O)N[C@@H](Cc1c[nH]cn1)C(=O)N[C@@H](CC(=O)O)C(=O)O` [HD20] (H-HHHQVYQVRSHWTGMHSGHD-OH; N-terminus and C-terminus assumed), in experiment [1], the “Clonal Phase ELISA coated signal” value is listed as 0.281 and the “Clonal Phase ELISA uncoated signal” value is recorded as 0.109. Also, in the experiment on human PBMCs, the IFNγ production entry was “++”, the IL-2 production result is on record as “−”, the IL-4 production result is given as “x” and the IL-6 production entry is on record as “++”. Also, in the experiment on human PBMCs, the IL-10 production result is “x” and the TNFα production result is given as “++”. Moreover, at mouse PD-1, the Rmax was 76 RU, the KA is 4250 M⁻¹ and the Kd was determined as 235 µM. On human PD-1, the “binding / affinity towards human PD-1 (in words)” value was “highest affinity”; the Rmax was determined as 3.35 RU; the KA turned out to be 318000 M⁻¹; the affinity, expressed as Kd, was 3.41 µM.
Turning to `CC[C@H](C)[C@H](NC(=O)[C@H](CCCCN)NC(=O)[C@@H]1CCCN1C(=O)[C@H](CCSC)NC(=O)[C@@H]1CCCN1C(=O)[C@@H](NC(=O)[C@@H](NC(=O)[C@H](CCCNC(=N)N)NC(=O)[C@@H](NC(=O)[C@@H](N)CCC(N)=O)[C@@H](C)O)[C@@H](C)O)C(C)C)C(=O)N[C@@H](Cc1c[nH]cn1)C(=O)N[C@@H](Cc1c[nH]cn1)C(=O)N1CCC[C@H]1C(=O)N1CCC[C@H]1C(=O)N[C@@H](Cc1c[nH]c2ccccc12)C(=O)N[C@@H](CCC(N)=O)C(=O)N[C@@H](CC(N)=O)C(=O)N[C@H](C(=O)N[C@H](C(=O)N1CCC[C@H]1C(=O)O)C(C)C)C(C)C` [QP20] (H-QTRTVPMPKIHHPPWQNVVP-OH; N-terminus and C-terminus assumed), in experiment [1], the “Clonal Phase ELISA coated signal” value was 0.851 and the “Clonal Phase ELISA uncoated signal” value came to 0.446. Besides, in the experiment with human PBMCs, the IFNγ production entry is on record as “x”, the IL-2 production result is reported as “x”, the IL-4 production result was “−” and the IL-6 production entry is recorded as “x”. In the experiment on human PBMCs, the IL-10 production result is “x” and the TNFα production entry is on record as “x”. Moreover, on mouse PD-1, the “binding / affinity towards mouse PD-1 (in words)” value was “highest affinity”, the Rmax was 13.4 RU, the KA was found to be 18000 M⁻¹ and the Kd came out at 55.4 µM. Besides, on human PD-1, the Rmax was determined as 3.83 RU, the KA is 93600 M⁻¹ and binding was put at a Kd of 10.7 µM.
For `CSCC[C@H](NC(=O)[C@H](CCCCN)NC(=O)[C@H](Cc1ccccc1)NC(=O)[C@H](Cc1c[nH]cn1)NC(=O)[C@H](Cc1c[nH]cn1)NC(=O)[C@H](Cc1ccc(O)cc1)NC(=O)[C@H](CO)NC(=O)[C@@H](N)CO)C(=O)N1CCC[C@H]1C(=O)N[C@@H](CCC(=O)O)C(=O)N[C@@H](CC(C)C)C(=O)N[C@@H](Cc1c[nH]cn1)C(=O)N[C@@H](Cc1ccccc1)C(=O)NCC(=O)N[C@@H](CCCCN)C(=O)N[C@@H](CC(N)=O)C(=O)N[C@H](C(=O)N[C@@H](Cc1ccccc1)C(=O)N[C@@H](Cc1c[nH]cn1)C(=O)N[C@@H](CCC(N)=O)C(=O)O)[C@@H](C)O` [SQ20] (H-SSYHHFKMPELHFGKNTFHQ-OH; N-terminus and C-terminus assumed), in experiment [1], the “Clonal Phase ELISA coated signal” value was determined as 0.284 and the “Clonal Phase ELISA uncoated signal” value was 0.159. Moreover, in the experiment on human PBMCs, the IFNγ production result is listed as “++”, the IL-2 production result is “+”, the IL-4 production entry was “−” and the IL-6 production result is on record as “++”. In the experiment with human PBMCs, the IL-10 production entry is reported as “+” and the TNFα production entry is reported as “+”. For the same molecule, on mouse PD-1, the “binding / affinity towards mouse PD-1 (in words)” value is listed as “highest affinity”, the Rmax is 12.8 RU, the KA worked out at 21400 M⁻¹ and the dissociation constant Kd stood at 46.8 µM. Besides, on human PD-1, the “binding / affinity towards human PD-1 (in words)” value was “highest affinity”, the Rmax was 4.05 RU, the KA was found to be 194000 M⁻¹ and the equilibrium dissociation constant (Kd) worked out at 5.16 µM.

Usually Kd stands for the constant that tells how readily two partners part at equilibrium.
